Structures can show the parent of a compound that is named as a salt. Where two headings read alike, the source gives them in different places.
Target: T1, human AspH (His6-AspH315–758) (Homo sapiens, UniProt Q12797)
T1 construct: N-Terminally His6-tagged human AspH315–758 (His6-AspH315–758) was produced in Escherichia coli BL21 (DE3) cells; made in house; host or cells: Escherichia coli BL21 (DE3), pET-28a(+) vector
T1 sequence (Q12797 315-758): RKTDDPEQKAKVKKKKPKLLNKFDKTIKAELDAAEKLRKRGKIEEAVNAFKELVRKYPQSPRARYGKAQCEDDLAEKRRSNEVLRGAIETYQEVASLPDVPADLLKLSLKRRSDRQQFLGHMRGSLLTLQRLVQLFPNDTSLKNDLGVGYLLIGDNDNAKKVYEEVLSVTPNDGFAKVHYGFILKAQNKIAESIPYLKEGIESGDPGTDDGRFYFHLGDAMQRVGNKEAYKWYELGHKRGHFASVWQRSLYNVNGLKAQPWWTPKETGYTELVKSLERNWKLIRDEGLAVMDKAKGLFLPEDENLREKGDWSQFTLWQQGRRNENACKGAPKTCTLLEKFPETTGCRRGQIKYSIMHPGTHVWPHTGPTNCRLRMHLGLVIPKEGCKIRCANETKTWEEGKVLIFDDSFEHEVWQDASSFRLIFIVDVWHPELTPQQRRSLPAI
Test: SPE-MS AspH inhibition assay (hFX-CP101-119 substrate hydroxylation)
Format: biochemical

[1] = AspH-inhibitor screening, 384-well Plate 1
[2] = AspH-inhibitor screening, 384-well Plate 1, substrate conversion
[3] = AspH-inhibitor screening, Plate 1-duplicate
[4] = AspH-inhibitor screening, Plate 1-duplicate, substrate conversion

Row | Plate 1 (% inhibition) [1] [%] | Plate 1 (% conversion) [2] [%] | Plate 1-duplicate (% inhibition) [3] [%] | Plate 1-duplicate (% conversion) [4] [%] | Structure (SMILES) | Plate 1 (% conversion) [%] | Plate 1 (% inhibition) [%] | Plate 1-duplicate (% conversion) [%] | Plate 1-duplicate (% inhibition) [%]
1 | -0.43 | 49.95 | -2.73 | 53.40 | COc1cc([C@@H]2c3cc4c(cc3[C@@H](O[C@@H]3O[C@@H]5CO[C@@H](C)O[C@H]5[C@H](O)[C@H]3O)[C@H]3COC(=O)[C@H]23)OCO4)cc(OC)c1O [Etoposide] | – | – | – | –
2 | -2.23 | 50.78 | -2.68 | 53.37 | C=CC[C@@H]1/C=C(\C)C[C@H](C)C[C@H](OC)[C@H]2O[C@@](O)(C(=O)C(=O)N3CCCC[C@H]3C(=O)O[C@H](/C(C)=C/[C@@H]3CC[C@@H](O)[C@H](OC)C3)[C@H](C)[C@@H](O)CC1=O)[C@H](C)C[C@@H]2OC.O [FK 506_Tacrolimus] | – | – | – | –
3 | 2.15 | 48.76 | -6.78 | 55.40 | Cl.O=C(/C=C/c1cccnc1)NCCCCC1CCN(C(=O)c2ccccc2)CC1 [FK-866 HCl_Daporinad] | – | – | – | –
4 | -3.25 | 51.25 | 5.03 | 49.55 | CC(C)(C)NC(=O)[C@H]1CC[C@H]2[C@@H]3CC[C@H]4NC(=O)C=C[C@]4(C)[C@H]3CC[C@]12C [Finasteride] | – | – | – | –
5 | 0.74 | 49.41 | 5.87 | 49.13 | O=c1[nH]c(=O)n([C@H]2C[C@H](O)[C@@H](CO)O2)cc1F [Floxuridine] | – | – | – | –
6 | 7.47 | 46.30 | 5.36 | 49.38 | O=c1[nH]cc(F)c(=O)[nH]1 [Fluorouracil] | – | – | – | –
7 | 40.68 | 30.96 | 22.43 | 40.92 | C[C@]12CC[C@@H]3c4ccc(O)cc4C[C@@H](CCCCCCCCC[S+]([O-])CCCC(F)(F)C(F)(F)F)[C@H]3[C@@H]1CC[C@@H]2O (some centres unmarked) [Fulvestrant] | – | – | – | –
8 | 1.37 | 49.12 | 2.57 | 50.77 | CS(=O)(=O)N1CCN(Cc2cc3nc(-c4cccc5[nH]ncc45)nc(N4CCOCC4)c3s2)CC1 [GDC-0941_Pictilisib] | – | – | – | –
9 | 8.17 | 45.98 | 17.15 | 43.54 | COc1ncc(-c2ccc3nccc(-c4ccnnc4)c3c2)cc1NS(=O)(=O)c1ccc(F)cc1F [GSK2126458] | – | – | – | –
10 | -27.40 | 62.40 | -34.23 | 69.02 | CCn1c(-c2nonc2N)nc2cnc(Oc3cccc(NC(=O)c4ccc(OCCN5CCOCC5)cc4)c3)cc21 [GSK 269962] | – | – | – | –
11 | 15.61 | 42.54 | 8.63 | 47.76 | C[C@@H]1C=C2C(=O)O[C@@H]3CC[C@H](C1)[C@]23O [Galiellalactone] | – | – | – | –
12 | -21.27 | 59.57 | -15.30 | 59.63 | CC(C)C[C@H](NC(=O)[C@@H](COC(C)(C)C)NC(=O)[C@H](Cc1ccc(O)cc1)NC(=O)[C@H](CO)NC(=O)[C@H](Cc1c[nH]c2ccccc12)NC(=O)[C@H](Cc1cnc[nH]1)NC(=O)[C@@H]1CCC(=O)N1)C(=O)N[C@@H](CCCNC(=N)N)C(=O)N1CCC[C@H]1C(=O)NNC(N)=O [Goserelin acetate] | – | – | – | –
13 | 6.00 | 46.98 | 5.43 | 49.35 | COC(=O)C[C@](O)(CCCC(C)(C)O)C(=O)O[C@@H]1C(OC)=C[C@]23CCCN2CCc2cc4c(cc2[C@H]13)OCO4 [Homoharringtonine] | – | – | – | –
14 | 4.31 | 47.76 | 3.98 | 50.07 | N#CC[C@H](C1CCCC1)n1cc(-c2ncnc3[nH]ccc23)cn1 [INCB018424 (free base, Ruxolitinib)] | – | – | – | –
15 | 4.97 | 47.46 | 4.58 | 49.77 | CC(C)n1nc(-c2ccc3oc(N)nc3c2)c2c(N)ncnc21 [INK128] | – | – | – | –

Second part, the compound before the results:

Row | Structure (SMILES) | Plate 1 (% inhibition) [1] [%] | Plate 1 (% conversion) [2] [%] | Plate 1-duplicate (% inhibition) [3] [%] | Plate 1-duplicate (% conversion) [4] [%] | Plate 1 (% conversion) [%] | Plate 1 (% inhibition) [%] | Plate 1-duplicate (% conversion) [%] | Plate 1-duplicate (% inhibition) [%]
16 | Cc1c(C(=O)Nc2ccc(N3C[C@@H](C)O[C@@H](C)C3)nc2)cccc1-c1ccc(OC(F)(F)F)cc1 [Erismodegib] | -2.59 | 50.95 | -6.71 | 55.37 | – | – | – | –
17 | C#Cc1cccc(Nc2ncnc3cc(OCCOC)c(OCCOC)cc23)c1 [Erlotinib hydrochloride] | -99.93 | 95.90 | -12.97 | 58.47 | – | – | – | –
18 | C[C@]12CC[C@@H]3c4ccc(OC(=O)N(CCCl)CCCl)cc4CC[C@H]3[C@@H]1CC[C@@H]2OP(=O)(O)O [Estramustine sodium phosphate] | – | – | – | – | 17.18 | 70.54 | 20.11 | 64.39
19 | CO[C@H]1C[C@@H]2CC[C@@H](C)[C@@](O)(O2)C(=O)C(=O)N2CCCC[C@H]2C(=O)O[C@H]([C@H](C)C[C@@H]2CC[C@@H](OCCO)[C@H](OC)C2)CC(=O)[C@H](C)/C=C(\C)[C@@H](O)[C@@H](OC)C(=O)[C@H](C)C[C@H](C)/C=C/C=C/C=C/1C [Everolimus] | -18.20 | 58.15 | -27.79 | 65.82 | – | – | – | –
20 | C=C1C[C@@H]2[C@H](CC[C@]3(C)C(=O)CC[C@@H]23)[C@@]2(C)C=CC(=O)C=C12 [Exemestane] | -2.81 | 51.05 | 2.16 | 50.97 | – | – | – | –
21 | Nc1nc(F)nc2c1ncn2[C@@H]1O[C@H](COP(=O)(O)O)[C@@H](O)[C@@H]1O [Fludarabine phosphate] | 5.12 | 47.39 | 1.33 | 51.38 | – | – | – | –
22 | CC(C)C(=O)Nc1ccc([N+](=O)[O-])c(C(F)(F)F)c1 [Flutamide] | 0.33 | 49.60 | 10.24 | 46.97 | – | – | – | –
23 | CC(C)NC[C@@H](C(=O)N1CCN(c2ncnc3c2[C@H](C)C[C@H]3O)CC1)c1ccc(Cl)cc1 [GDC-0068] | -1.30 | 50.35 | 4.48 | 49.82 | – | – | – | –
24 | Cc1c(CN2CCN(C(=O)[C@H](C)O)CC2)sc2c(N3CCOCC3)nc(-c3cnc(N)nc3)nc12 [GDC-0980] | 2.44 | 48.62 | 1.54 | 51.28 | – | – | – | –
25 | CC(=O)Nc1cccc(-n2c(=O)n(C3CC3)c(=O)c3c(Nc4ccc(I)cc4F)n(C)c(=O)c(C)c32)c1 [GSK1120212_Trametinib] | -0.37 | 49.92 | -2.41 | 53.24 | – | – | – | –
26 | Cc1c(Cn2c(C)nc3c(C(=O)O)cc(N4CCOCC4)cc32)cccc1C(F)(F)F [GSK2636771] | -0.51 | 49.98 | 13.40 | 45.39 | – | – | – | –
27 | O=C(O)c1ccc(-c2c[nH]c3ncc(-c4ccccc4)cc23)cc1C1CCCC1 [GSK 650394] | 57.76 | 23.08 | 56.10 | 24.22 | – | – | – | –
28 | COc1cc2ncnc(Nc3ccc(F)c(Cl)c3)c2cc1OCCCN1CCOCC1 [Gefitinib] | -37.34 | 66.99 | -37.51 | 70.65 | – | – | – | –
29 | Nc1ccn([C@@H]2O[C@H](CO)[C@@H](O)C2(F)F)c(=O)n1 [Gemcitabine hydrochloride] | 1.09 | 49.25 | 10.34 | 46.91 | – | – | – | –
30 | O=S(=O)(c1cccc2cnccc12)N1CCCNCC1 [HA-1077 (Fasudil)] | 1.01 | 49.28 | 12.84 | 45.67 | – | – | – | –
31 | NC(=O)NO [Hydroxyurea] | 16.85 | 41.97 | 8.68 | 47.74 | – | – | – | –
32 | COc1cc2c(cc1-c1c(C)noc1C)ncc1[nH]c(=O)n([C@H](C)c3ccccn3)c12 [I-BET151 (GSK1210151A)] | 3.78 | 48.01 | 1.98 | 51.06 | – | – | – | –

From PMC7588595, “Small-molecule active pharmaceutical ingredients of approved cancer therapeutics inhibit human aspartate/asparagine-β-hydroxylase” (Bioorganic & Medicinal Chemistry, 2020)
